Results on seven compounds are retold here after patent US10214478B2, “Amantadine nitrate compounds with neural protective effect, and preparation and medical use thereof” (GUANGZHOU MAGPIE PHARMACEUTICALS CO., LTD., priority 2016, dated 2019).

For this test, the system named is primary cerebellum granule cells of rats. Kind of test: Protective effects of compounds on primary cerebellum granule cells of rats (glutamate-induced excitotoxic injury, MTT). The format is cell-based. To be noted: pre-protection 2 h, 200 iM glutamate 24 h, MTT cell viability; read-out: EC50, protective effects of the compounds on rat's nerve cells. The protocol:
Isolated primary cerebellum granule cells of infant rats were inoculated in 96-well plates with 1.2×10^5/well by using 10% FBS+25 mM KCl+2 mM Glutamine+1% of double-antibody BME medium. After 24 hours, cytarabine with a final concentration of 10 iM was added to inhibit the proliferation of neurogliocyte cells. After the day 4, glucose with the final concentration of 5 mM was added every four days to complement energy metabolism and water evaporation of cells. The materials were placed in a cell incubator (37° C., 5% CO2) to be cultured for 10 days. […] After pre-protection for 2 h, 200 iM of glutamate was added to induce cell damage for 24 h, and then MTT was added to culture for 4 h. The supernatant fraction was sucked, and 150 iL of DMSO was added to each well for dissolving. After blending with shaking, the light absorption values under 570 nm wavelength was measured with a microplate reader, and the viability of cells was calculated. Cell viability (%)=absorbance of different groups/absorbance of the normal control group×100%.

Regarding `CCC12CC3CC(N)(C1)CC(CCCO[N+](=O)[O-])(C3)C2` (stereo not shown) [NM-005], the EC50 (as a rule, the concentration at which the effect is half-maximal) came to 6.06 µM.
Consider `CC12CC3CC(N)(C1)CC(O[N+](=O)[O-])(C3)C2` (stereo not shown) [NM-001], for which the EC50 was found to be 24.6 µM.
As for `NC12CC3CC(CCO[N+](=O)[O-])(C1)CC(CCO[N+](=O)[O-])(C3)C2` [NM-009], the EC50 was determined as 5.2 µM.
In the case of `CCC12CC3CC(N)(C1)CC(O[N+](=O)[O-])(C3)C2` (stereo not shown) [NM-003] it was 15.4 µM.
In the case of `CCC12CC3CC(N)(C1)CC(CO[N+](=O)[O-])(C3)C2` (stereo not shown) [NM-004] it was 8.12 µM.
On to `CCC12CC3(N)CC(CC)(C1)CC(O[N+](=O)[O-])(C3)C2` [YQW-036, reference compound], for which the EC50 was 31.4 µM.
Consider `CC(CO[N+](=O)[O-])CC12CC3CC(N)(C1)CC(CC(C)CO[N+](=O)[O-])(C3)C2` (stereo not shown) [NM-012], for which the EC50 was 9.3 µM.
